Experimental data from patent US8232299B2, “Phthalimide derivatives that influence cellular vesicular systems, pharmaceutical compositions, and use thereof” (Avidin Kft., priority 2007, dated 2012).

What was measured:
[1] = test system: RAW.264.7 matured mice macrophages; experiment: MTS test of vitality / metabolic activity of the macrophages; assay type: cell-based
Procedure: In our experiments we investigated the early TNFα secretion of RAW.264.7 matured mice macrophages. This cell line stores large amount of preformed TNFα. […] Culture supernatant was collected and TNFα content was determined by R&D Duoset ELISA kit (detection limit<62.5 pg/ml). […] So the reduced TNFα level was due to inhibition of the release of preformed TNFα and not due to dying of the cells.
Effects of compound 3a and compound 3b on TNFα secretion and on NF-kappaB activation could have been based on cytotoxicity as well. To exclude that, we determined the metabolic activity of the cells, which is proportional to the cell number, by MTS test 8 hours after the treatment.

TNFα = experiment: late phase (transcriptionally induced) TNFα secretion of macrophages, ELISA; assay type: cell-based, mice; conditions: preformed TNFα washed away after 4 hours, TNFα of next 4 hours; FIG. 3
Procedure: For the detection of late phase TNFα secretion the preformed TNFα, released after LPS induction of the macrophages, was washed away after 4 hours, and the amount of TNFα produced during the next 4 hours was determined by ELISA test. […] Results are depicted in FIG. 3.

SEC22b protein = target: T1, SEC22b protein (Homo sapiens, UniProt O75396); experiment: binding to vesicle movement protein
T1 sequence (O75396 1-215): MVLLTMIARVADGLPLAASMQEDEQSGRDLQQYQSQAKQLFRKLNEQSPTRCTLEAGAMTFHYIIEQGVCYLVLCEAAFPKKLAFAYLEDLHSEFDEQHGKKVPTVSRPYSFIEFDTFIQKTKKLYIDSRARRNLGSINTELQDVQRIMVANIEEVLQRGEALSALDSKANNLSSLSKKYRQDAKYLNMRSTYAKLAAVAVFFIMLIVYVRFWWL

[2] = test system: HepG2 (human hepatocellular carcinoma); experiment: cytotoxic effect on hepatocellular carcinoma cell line, MTS test, 24 hours; assay type: cell-based; conditions: 24 hours incubation, already at 20 and 50 μM concentrations
Procedure: (§1) In these experiments HepG2 (human hepatocellular carcinoma) and MCF7 (Human breast adenocarcinoma) cells were used. They were cultured in the following media: For HepG2 Dulbecco's Modified Eagle Medium (D-MEM) (high glucose) (Gibco BRL, Carlsbad, Calif., USA), penicillin (50 IU/ml)-streptomycin ([…]), 10% fetal bovine serum; for MCF7 (Human breast adenocarcinoma) 1:1 mixture of Dulbecco's Modified Eagle Medium (D-MEM) (high glucose) (Gibco BRL, Carlsbad, Calif., USA) and Nutrient Mixture F-12 Ham (Sigma, St. Louis, Mo., USA), penicillin (50 IU/ml)-streptomycin ([…]), 10% fetal bovine serum. Experiments were performed as described in Example 9. with the difference that the incubation time was 24 hours in this case. After the incubation period MTS test (3-(4,5-dimethylthiazol-2-yl)-5-(3-carboxymethoxyphenyl)-2-(4-sulfophenyl)-2H-tetrazolium) (Promega, Madison, Wis., USA) was performed as described above.

[3] = test system: MCF7 (Human breast adenocarcinoma); experiment: cytotoxic effect on breast carcinoma cell line, MTS test, 24 hours; assay type: cell-based; conditions: 24 hours incubation, in the concentration range tested
Procedure: as §1

human melanoma (HT168M1) [4] = experiment: spleen/liver animal model, melanoma cells injected into spleen; assay type: in vivo, CB17/scid mice
Procedure: Studies were conducted in the spleen/liver animal model. From 40 adult male CB17/scid mice, born with immunodeficiency, 20 were randomly selected, and they were further divided into two groups. Animals were marked on their ear one by one. 10 of the selected mice were treated with compound 3b (40 mg/kg) for 5 days (PRETREATED/3b), the other 10 animals were treated per os by gavage with appropriate dilution of DMSO serving as the carrier (PRETREATED/control). On the 5th treatment day all the 40 animals were anesthetized by Nembutal (75 mg/kg), and 4×10^4 cells from human melanoma (HT168M1) was injected into their spleens (i.s.). Local bleeding during the implantation was treated with Gelaspon resorbable gelatin sponge. On the 7th day after the implantation the non-treated 20 mice were randomly assigned into two groups and their ear was marked. 10 mice were treated from this time on with compound 3b (40 mg/kg) (POSTTREATED/3b), the other 10 were treated with appropriate dilution of the carrier (DMSO) with similar frequency (POSTTREATED/control) per os once a day five times per week for three weeks. Pretreated groups were not treated after the implantation. Body weight changes were monitored once a week for each animal. 31 days after implantation animals were sacrificed by bleeding in Nembutal (75 mg/kg) anesthesia. […]

human melanoma (HT168M1) [5] = experiment: subcutaneous melanoma tumor model; assay type: in vivo, CB17/scid mice; conditions: 40 mg/kg per os, once a day five days per week for 3 weeks from day 7; FIG. 8
Procedure: Slightly anesthetized (diethyl ether narcosis) adult male CB17/scid mice born with immunodeficiency were subcutaneously (s.c.) implanted with 8×10^5 cells from in vitro human melanoma (HT168M1) cultures. After tumor cell inoculation animals were randomly assigned into three groups and their ears were marked. From the 7th day after the tumor cell inoculation mice were treated once a day five days per week for 3 weeks with compound 2 (40 mg/kg), or with compound 3b (40 mg/kg) per os by gavage. Control animals were treated with appropriate dilution of the carrier (DMSO) in a similar manner with similar frequency. Body weight changes were monitored once a week for each animal. When subcutaneous tumor reached palpable size its dimensions were also detected with caliper. Tumor volume was estimated by the formula π/6×a×b^2, where “a” is the longer and “b” is the shorter diameter. 30 days after implantation animals were sacrificed by bleeding in Nembutal (75 mg/kg) anesthesia. Evaluation was based on the mass of the primary tumor.
In this experiment the effect of compound 2 and compound 3b was tested in oral administration at the same dose (40 mg/kg).

For `CCNc1c(F)c(F)c2c(c1F)C(=O)N(c1c(C(C)C)cccc1C(C)C)C2=O` [Compound 3b, 2-(2,6-diisopropylphenyl)-5-(ethylamino)-4,6,7-trifluoroisoindole-1,3-dione], the “vitality of the cells (MTS test)” value ([1]; 3 hours after the stimulation with LPS) was “no cell death was detected”, the “metabolic activity of the cells (MTS test)” value ([1]; 8 hours after the treatment) was “not found to be toxic” and the “late TNFα secretion of macrophages” value (TNFα) was “inhibited late TNFα secretion of macrophages in a concentration dependent way”. For the same compound, the “binding to SEC22b protein” value (SEC22b protein) was “can also bind to SEC22b protein”, the “effect on HepG2 cells” value [2] was “strong effect” and the “effect on MCF7 cells” value [3] was “weak effect”. For the same compound, the “further metastasis of the adhered cells” value (human melanoma (HT168M1) [4]; posttreatment 40 mg/kg per os from day 7, five times per week for three weeks, not statistically significant) was “slightly inhibited”, the number of metastases (human melanoma (HT168M1) [4]; pretreatment 40 mg/kg per os for 5 days before implantation, p=0.05, FIG. 7) was “significantly reduced the number of metastases” and the “effect on growth of the subcutaneous primary tumor (tumor mass)” value (human melanoma (HT168M1) [5]) was “significantly (p=0.05) reduced tumor size”.
